Common to all, as to test: in vitro DNA strand exchange assay with recombinant hRAD51
Common to all, as to format: biochemical

In assay [1] the target is T1, hRAD51 (Homo sapiens, UniProt Q06609).
T1 sequence (Q06609 2-339): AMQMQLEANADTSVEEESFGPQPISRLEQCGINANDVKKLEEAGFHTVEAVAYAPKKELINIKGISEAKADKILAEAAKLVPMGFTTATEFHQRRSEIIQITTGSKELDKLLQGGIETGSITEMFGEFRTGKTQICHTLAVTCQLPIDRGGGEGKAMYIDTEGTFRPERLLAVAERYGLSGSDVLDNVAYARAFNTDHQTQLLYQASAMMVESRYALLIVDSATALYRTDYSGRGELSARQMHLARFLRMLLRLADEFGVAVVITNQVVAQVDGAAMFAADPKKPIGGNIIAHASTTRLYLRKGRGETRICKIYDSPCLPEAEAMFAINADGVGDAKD

Assay [2] concerns the target T1, hRAD51. This is another data set of the same source.
Assay [3] deals with T1, hRAD51. This is another data set of the same source.

Usually IC50 stands for the concentration at which inhibition is half-maximal. Usually EC50 stands for the concentration that produces a half-maximal response.

Molecules are shown by their SMILES. Like-named read-outs stand apart in the source and are kept apart here.

As for `O=S(=O)(O)c1cc(N=C=S)ccc1/C=C/c1ccc(N=C=S)cc1S(=O)(=O)O` [DIDS], in assay [1], the IC50 was found to be 90 ± 2.5 µM.

For `COc1cc(/C=C/c2ccc(O)cc2)cc(OC)c1` [P-ter, E-pterostilbene], the half-maximal effective concentration (EC50) in assay [2] is 19.2 ± 2.4 µM.

As for `O=C1C(Cl)=C(N2CCOCC2)C(=O)N1c1ccc(Cl)c(Cl)c1` [RI-1], the IC50 in assay [1] was found to be 50 ± 5 µM.

Consider `O=C(Nc1ccc(Br)cc1)c1ccc(Br)c(S(=O)(=O)NCc2ccccc2)c1` [RS-1], for which the EC50 in assay [3] was 25 ± 3 µM.
